Measured values from patent US10273235B2, “Compositions and methods for inhibiting β-lactamase” (LegoChem Biosciences, Inc., priority 2015, dated 2019).
“And” between values parts separate entries of the source, which are not always exact repeats. Identical values can stand only once. Like-named read-outs stand apart in the source and are kept apart here.

Legend:
[1] = test system: K. pneumoniae 7586; experiment: BLI potentiation MIC, K. pneumoniae 7586; format: cell-based; conditions: no BLI, incubation 19 h
Description: (§1) MIC90 (μg/mL) is the lowest concentration of an antibiotic that will inhibit the visible growth of 90% of microorganisms after incubation as compared with a control group to which the antibiotic is not treated.
(§2) MIC values were measured by the broth microdilution method developed by the Clinical and Laboratory Standards Institute (CLSI) (see CLSI M07-A9, Methods for Dilution Antimicrobial Susceptibility Test for Bacteria that Grow Aerobically; Approved Standard-Ninth Edition (2012): CLSI, Villanova, Pa.). The in vitro antibacterial activity was measured with respect to the following 9 clinical isolates: P. aeruginosa (3 strains); K. pneumoniae (6 strains). The in vitro antibacterial activity of selected compounds was measured with respect to the following 15 clinical isolates: K. pneumoniae (15 strains).

[2] = test system: K. pneumoniae KU2; experiment: BLI potentiation MIC, K. pneumoniae KU2; format: cell-based; conditions: Klebsiella pneumoniae, no BLI, incubation 19 h, read-out: MIC of LCB10-0200 alone
Description: as §1, §2

[3] = test system: K. pneumoniae NDM-506; experiment: BLI potentiation MIC, K. pneumoniae NDM-506; format: cell-based; conditions: Klebsiella pneumoniae, NDM506; no BLI; incubation 19 h; read-out: MIC of LCB10-0200 alone
Description: as §1, §2

[4] = test system: K. pneumoniae 5971(KOX); experiment: BLI potentiation MIC, K. pneumoniae 5971(KOX); format: cell-based; conditions: no BLI, incubation 19 h
Description: as §1, §2

[5] = test system: K. pneumoniae 101; experiment: BLI potentiation MIC, K. pneumoniae 101; format: cell-based; conditions: no BLI, incubation 19 h
Description: as §1, §2

[6] = test system: K. pneumoniae 5576; experiment: BLI potentiation MIC, K. pneumoniae 5576 (SHV-11, CMY-2, DHA-1, TEM-1); format: cell-based; conditions: no BLI, incubation 19 h
Description: as §1, §2

[7] = test system: K. pneumoniae 5117; experiment: BLI potentiation MIC, K. pneumoniae 5117 (SHV-11, TEM-1); format: cell-based; conditions: no BLI, incubation 19 h
Description: as §1, §2

[8] = test system: P. aeruginosa ARC3506; experiment: BLI potentiation MIC, P. aeruginosa ARC3506 (VEB-1, OXA-10, OprD−, AmpC); format: cell-based; conditions: Pseudomonas aeruginosa, ARC3506; no BLI; incubation 19 h; read-out: MIC of LCB10-0200 alone
Description: as §1, §2

[9] = test system: K. pneumoniae 6839; experiment: BLI potentiation MIC, K. pneumoniae 6839 (SHV-11, SHV-12, DHA-1); format: cell-based; conditions: no BLI, incubation 19 h
Description: as §1, §2

[10] = test system: E. coli K0519020; experiment: MIC of strain used for extraction of enzymes, E. coli K0519020 (CTX-M-15, TEM-1, OXA-1, AmpC (NC_000913)); format: cell-based; conditions: for MIC: Escherichia coli, K0519020
[11] = test system: P. aeruginosa ARC3514; experiment: BLI potentiation MIC, P. aeruginosa ARC3514 (KPC-2, OprD−, AmpC); format: cell-based; conditions: no BLI, incubation 19 h
Description: as §1, §2

[12] = test system: K. pneumoniae 100; experiment: BLI potentiation MIC, K. pneumoniae 100; format: cell-based; conditions: Klebsiella pneumoniae, 100; no BLI; incubation 19 h; read-out: MIC of LCB10-0200 alone
Description: as §1, §2

[13] = test system: K. pneumoniae 89; experiment: BLI potentiation MIC, K. pneumoniae 89; format: cell-based; conditions: no BLI, incubation 19 h
Description: as §1, §2

[14] = test system: K. pneumoniae 3784; experiment: BLI potentiation MIC, K. pneumoniae 3784 (SHV-11, SHV-12, DHA-1); format: cell-based; conditions: no BLI, incubation 19 h
Description: as §1, §2

[15] = test system: K. pneumoniae 5216; experiment: BLI potentiation MIC, K. pneumoniae 5216 (TEM-1A); format: cell-based; conditions: no BLI, incubation 19 h
Description: as §1, §2

[16] = test system: K. pneumoniae CL5761; experiment: MIC of strain used for extraction of enzymes, K. pneumoniae CL5761 (KPC-3, TEM-216, SHV-5); format: cell-based; conditions: for MIC: Klebsiella pneumoniae, CL5761
Description: as §1, §2

[17] = test system: E. aerogenes K9911729; experiment: MIC of strain used for extraction of enzymes, E. aerogenes K9911729 (CMY-10, TEM-1, SHV-12, AmpC (DQ478697)); format: cell-based; conditions: for MIC: Klebsiella aerogenes, K9911729
[18] = test system: P. aeruginosa ATCC27853; experiment: BLI potentiation MIC (broth microdilution), P. aeruginosa ATCC27853 (PoxB, AmpC); format: cell-based; conditions: no BLI, incubation 19 h
Description: as §1, §2

[19] = test system: K. pneumoniae 4248; experiment: BLI potentiation MIC, K. pneumoniae 4248 (SHV-11, CTX-M-15, TEM-1, OXA-1); format: cell-based; conditions: no BLI, incubation 19 h
Description: as §1, §2

[20] = test system: K. pneumoniae MP14; experiment: BLI potentiation MIC, K. pneumoniae MP14; format: cell-based; conditions: no BLI, incubation 19 h
Description: as §1, §2

[21] = test system: E. coli ECO200; experiment: MIC of strain used for extraction of enzymes, E. coli ECO200 (NDM-1, TEM-1, CTX-M-15, EC (AmpC), OXA-2 type); format: cell-based; conditions: for MIC: Escherichia coli
[22] = test system: E. coli TOPDXA048; experiment: MIC of strain used for extraction of enzymes, E. coli TOPDXA048 (OXA-48, TEM-116, AmpC (NC_000913)); format: cell-based; conditions: for MIC: Escherichia coli
[23] = target: T1, CMY-10 β-lactamase (class C) (Klebsiella aerogenes, UniProt Q99QC1); experiment: Inhibitory activity against β-lactamases (nitrocefin), CMY-10; format: biochemical
T1 construct: MICs of bacterial strains used for extraction of enzymes; endogenous in cells
T1 sequence (Q99QC1 24-382): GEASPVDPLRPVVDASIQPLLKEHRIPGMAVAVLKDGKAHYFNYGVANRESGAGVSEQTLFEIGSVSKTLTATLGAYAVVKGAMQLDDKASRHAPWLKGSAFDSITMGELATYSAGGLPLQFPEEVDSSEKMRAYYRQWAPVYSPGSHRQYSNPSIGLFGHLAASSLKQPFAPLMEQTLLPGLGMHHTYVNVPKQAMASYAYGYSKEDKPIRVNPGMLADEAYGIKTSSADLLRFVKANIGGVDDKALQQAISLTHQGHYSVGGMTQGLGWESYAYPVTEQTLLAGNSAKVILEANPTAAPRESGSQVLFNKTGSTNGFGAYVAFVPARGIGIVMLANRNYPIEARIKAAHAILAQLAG
Description: More diluted stocks were prepared as necessary. Enzyme activity was determined by monitoring the change of absorbance at 492 nm using the characteristic molecular extinction coefficient (Δε492=17,400 M^−1 cm^−1) of nitrocefin by a Shimazu UV-1650PC spectrophotometer. The nitrocefin was purchased from OXOID. Kinetic measurements were run at 30° C. in 10 mM MES[2-(N-morpholino)ethanesulfonic acid]buffer (pH 6.8) or 10 mM MES[2-(N-morpholino)ethanesulfonic acid] buffer (pH 6.8), […] BSA and 50 mM sodium bicarbonate. Reactions were performed in 2.5 mL cuvettes with 100 μM nitrocefin and initiated by adding 1.5 nM to 2.5 nM enzyme. The first 180 s of each reaction was used to measure initial rates. Data were evaluated using Microsoft Excel. Concentration dependent inhibition of enzyme was measured using different concentrations of inhibitors resulting from two-fold dilution series. Reaction progress at every concentration of inhibitor was measured in triplicates. IC50 values were calculated using 4-parameter log fits using XL Fit curve fitting software (www.idbs.com) for Excel using the following equation:
[formula] where y is the remaining enzyme activity (in %) and x is the corresponding concentration. he fitted IC50 parameter is the relative IC50, and is defined as the concentration giving a response half way between the fitted top (B) and bottom (A) of the curve.

[24] = no BLI, read-out: MIC of LCB10-0200 alone
[25] = BLI: 4 ug/mL, read-out: MIC of LCB10-0200 with BLI

Structure (SMILES): CC(C)(O/N=C(\C(=O)N[C@@H]1C(=O)N2C(C(=O)[O-])=C(C[n+]3cnc(N)c(NCCNC(=O)c4cc(=O)c(O)cn4O)c3)CS[C@H]12)c1nc(N)sc1Cl)C(=O)O [LCB10-0200]
- MIC ([1]; Klebsiella pneumoniae, 7586, 19 h, read-out: MIC of LCB10-0200 alone): 4 µg/mL
- MIC of LCB10-0200 alone [1]: 2 μg/mL
- MIC [2]: 32 µg/mL
- MIC [3]: > 64 µg/mL
- MIC ([4]; Klebsiella pneumoniae, 19 h, read-out: MIC of LCB10-0200 alone): 32 µg/mL
- MIC of LCB10-0200 alone [4]: 64 μg/mL
- MIC ([5]; Klebsiella pneumoniae, 101, 19 h, read-out: MIC of LCB10-0200 alone): 16 µg/mL
- MIC of LCB10-0200 alone [5]: 32 μg/mL
- MIC ([6]; Klebsiella pneumoniae, 5576, 19 h, read-out: MIC of LCB10-0200 alone): > 64 µg/mL
- MIC of LCB10-0200 alone [6]: 64 μg/mL and 32 μg/mL
- MIC ([7]; Klebsiella pneumoniae, 5117, 19 h, read-out: MIC of LCB10-0200 alone): 0.125 µg/mL
- MIC of LCB10-0200 alone [7]: 0.25 μg/mL
- MIC [8]: 2 µg/mL
- MIC ([9]; Klebsiella pneumoniae, 6839, 19 h, read-out: MIC of LCB10-0200 alone): 32 µg/mL
- MIC of LCB10-0200 alone [9]: 16 μg/mL
- MIC [10, 24]: 64 µg/mL
- MIC ([11]; Pseudomonas aeruginosa, ARC3514, 19 h, read-out: MIC of LCB10-0200 alone): 0.25 µg/mL
- MIC of LCB10-0200 alone [11]: 0.5 μg/mL
- MIC [12]: 0.0625 µg/mL
- MIC ([13]; Klebsiella pneumoniae, 89, 19 h, read-out: MIC of LCB10-0200 alone): 0.125 µg/mL
- MIC of LCB10-0200 alone [13]: 0.0625 μg/mL
- MIC ([14]; Klebsiella pneumoniae, 3784, 19 h, read-out: MIC of LCB10-0200 alone): 32 µg/mL
- MIC of LCB10-0200 alone [14]: 64 μg/mL
- MIC ([15]; Klebsiella pneumoniae, 5216, 19 h, read-out: MIC of LCB10-0200 alone): > 64 µg/mL
- MIC of LCB10-0200 alone [15]: 64 μg/mL and 32 μg/mL
- MIC [16, 24]: 32 µg/mL
- MIC [17, 24]: 2 µg/mL
- MIC ([18]; Pseudomonas aeruginosa, ATCC27853, 19 h, read-out: MIC of LCB10-0200 alone): 0.25 µg/mL
- MIC of LCB10-0200 alone [18]: 0.5 μg/mL
- MIC ([19]; Klebsiella pneumoniae, 4248, 19 h, read-out: MIC of LCB10-0200 alone): 2 µg/mL
- MIC of LCB10-0200 alone [19]: 4 μg/mL
- MIC ([20]; Klebsiella pneumoniae, MP14, 19 h, read-out: MIC of LCB10-0200 alone): 0.125 µg/mL
- MIC of LCB10-0200 alone [20]: 0.25 μg/mL
- MIC ([21]; ECO200, read-out: MIC of LCB10-0200 alone): > 64 µg/mL
- MIC ([22]; TOPDXA048, read-out: MIC of LCB10-0200 alone): 0.25 µg/mL

Structure (SMILES): NC(=O)[C@@H]1CC[C@@H]2CN1C(=O)N2OS(=O)(=O)O [Avibactam]
- MIC of Meropenem with BLI ([10]; BLI: 4 ug/mL): 0.25 µg/mL
- MIC [10, 25]: 0.25 µg/mL
- MIC of Meropenem with BLI ([16]; BLI: 4 ug/mL): 1 µg/mL
- MIC [16, 25]: 16 µg/mL
- MIC of Meropenem with BLI ([17]; BLI: 4 ug/mL): 0.5 µg/mL
- MIC [17, 25]: 2 µg/mL
- IC50 [23]: 13 nM
- MIC of Meropenem with BLI ([21]; BLI: 4 ug/mL): >64 µg/mL
- MIC ([21]; ECO200, read-out: MIC of LCB10-0200 with BLI): > 64 µg/mL
- MIC of Meropenem with BLI ([22]; BLI: 4 ug/mL): 0.5 µg/mL
- MIC ([22]; TOPDXA048, read-out: MIC of LCB10-0200 with BLI): 0.25 µg/mL
